Data set [1] has as its system Human ovarian cancer cell line SKOV3. As to conditions: 24 h.
The test system is the same in data set [2]. Description: Phototoxicity in SKOV3 cells (660 nm laser or LED, AlamarBlue viability). The class given is cell-based. As to conditions: for IC90: SKOV3, 24 h uptake, viability 24 h later. From the text: All data are shown as mean±SD (where appropriate).
Media was then replaced with fresh media containing AlamarBlue, and % viable cells remaining assessed as above. […] All measurements were made in quadruplicate.

For data set [3] the test system is unchanged. As to the kind of experiment: Inherent cytotoxicity (dark toxicity) in SKOV3 cells (AlamarBlue viability). The settings on record: SKOV3, 24 h incubation, no light activation. A general note: The colour change of resazurin is a common sign of viable cells or microbes.
Protocol: Serial dilutions were prepared in cell culture media (Dulbecco's Modified Eagle Medium/Nutrient Mixture F-12 (DMEM/F-12)) supplemented with 10% v/v Fetal Bovine Serum, 100 U/mL penicillin, 100 μg/mL streptomycin and the same excipient solution at a constant 1:55 dilution.
Human ovarian cancer cell line SKOV3 (ATCC #HTB-77) was maintained in Dulbecco's Modified Eagle Medium/Nutrient Mixture F-12 (DMEM/F-12), supplemented with 10% v/v Fetal Bovine Serum, 100 U/mL penicillin and 100 μg/mL streptomycin. Monolayer cultures were grown in a humidified incubator at 37° C. with 5% CO2. Once cells had reached ˜80% confluence, spent media was replaced with media containing photosensitizer at the required concentration and cells were incubated for the desired period of time to allow photosensitizer uptake.
Spectral absorbance and viability measurements were normalized in the range 0-100%, with a minimum of 0 and a maximum value determined from the dataset. Dose response was determined using a sigmoidal four-point non-linear regression with variable slope, and IC10 or IC90 calculated for each compound. All data are shown as mean±SD (where appropriate).
On reaching ˜60% confluence, media was aspirated and replaced with fresh media containing the relevant phyllochlorin analogue from 0-100 μM in DMSO.
Untreated cells were used as a control. […] All measurements were made in quadruplicate.
The phototoxicity and inherent cytotoxicity (i.e. “dark toxicity”) of phyllochlorin analogues were assessed as previously using SKOV3 ovarian cancer cells. For comparative purposes, phyllochlorin analogues were compared against chlorin e4 disodium and Talaporfin sodium, a clinically approved photosensitizer used in the photodynamic treatment of lung cancers.
Setting [4] is: Homo sapiens, SK-OV-3, light or radiation study, 660 nm LED panel 50 mW/cm^2 for 5 mins (15 J/cm^2), read-out: Phototoxicity μM (IC90), measured by LED.

Like-named read-outs stand apart in the source and are kept apart here.

As for `CCC1=C(C)c2cc3[nH]c(cc4nc(c(C)c5cc(C)c(cc1n2)[nH]5)[C@@H](CCCO)[C@@H]4C)c(C)c3CO[C@@H]1O[C@H](CO)[C@@H](O)[C@H](O)[C@H]1O` [Compound 35, phyllochlorin 3-hydroxypropyl-13-hydroxymethyl-β-D-glucoside ether], in data set [1], the “Dark toxicity μM (IC10)” value worked out at 1.651 µM. Besides, the IC90 in data set [2] (Homo sapiens, SK-OV-3, light or radiation study, 660 nm laser 50 mW/cm^2 for 5 mins (15 J/cm^2), read-out: Phototoxicity μM (IC90)) amounted to 0.0467 µM.
Regarding `CCC1=C(C)c2cc3[nH]c(cc4nc(c(C)c5cc(C)c(cc1n2)[nH]5)[C@@H](CCC(=O)OC)[C@@H]4C)c(C)c3COC(=O)NCCCCCC[P+](c1ccccc1)(c1ccccc1)c1ccccc1` [Compound 39, phyllochlorin methyl ester 13-(6-(triphenylphosphonium bromide)hexyl)carbamate], in data set [1], the “Dark toxicity μM (IC10)” value came out at 6.403 µM. In addition, the IC90 in data set [2] (setting [4]) was found to be 0.0018 µM.
As for `CCC1=C(C)c2cc3[nH]c(cc4nc(c(C)c5cc(C)c(cc1n2)[nH]5)[C@@H](CCC(=O)OC)[C@@H]4C)c(C)c3COC(=O)NCCCOCCC[P+](c1ccccc1)(c1ccccc1)c1ccccc1` [Compound 40, phyllochlorin methyl ester 13-(N-(3-(3-triphenylphosphoniumpropoxy)propyl)chloride)carbamate], the IC90 in data set [2] (setting [4]) came to 0.0008 µM. In data set [3], the “Dark toxicity μM (IC10)” value amounted to 0.6145 µM.
Regarding `CCC1=C(C)c2cc3[nH]c(cc4nc(c(C)c5cc(C)c(cc1n2)[nH]5)[C@@H](CCC(=O)N(C)CCOCCOCCOC)[C@@H]4C)c(C)c3CO` [Compound 42, phyllochlorin 13-hydroxymethyl N-methyl-N-3,6,9-trioxadecyl propylamide], the “Dark toxicity μM (IC10)” value in data set [1] was found to be 4.252 µM. The IC90 in data set [2] (setting [4]) came out at 0.245 µM.
The matching figures for `CCC1=C(C)c2cc3[nH]c(cc4nc(c(C)c5cc(C)c(cc1n2)[nH]5)[C@@H](CCC(=O)N(C)CCOCCOCCOC)[C@@H]4C)c(C)c3COC(=O)NCCCCCC[P+](c1ccccc1)(c1ccccc1)c1ccccc1` [Compound 43, phyllochlorin 13-(6-(triphenylphosphonium bromide)hexyl)carbamate N-methyl-N-3,6,9-trioxadecyl propylamide]: 0.5889 µM and 0.0042 µM.
Turning to `CCC1=C(C)c2cc3[nH]c(cc4nc(c(C)c5cc(C)c(cc1n2)[nH]5)[C@@H](CCC(=O)OC)[C@@H]4C)c(C)c3COC(=O)NCCC[P+](c1ccccc1)(c1ccccc1)c1ccccc1` [Compound 45, phyllochlorin methyl ester 13-(N-(3-triphenylphosphoniumpropyl)bromide)carbamate], the IC90 in data set [2] (setting [4]) was found to be 0.0012 µM. The “Dark toxicity μM (IC10)” value in data set [3] is 3.977 µM.
With `CCC1=C(C)c2cc3[nH]c(cc4nc(c(C)c5cc(C)c(cc1n2)[nH]5)[C@@H](CCC(=O)OC)[C@@H]4C)c(C)c3COC(=O)NCC[P+](c1ccccc1)(c1ccccc1)c1ccccc1` [Compound 46, phyllochlorin methyl ester 13-(N-(2-triphenylphosphoniumethyl)bromide)carbamate], in data set [1], the “Dark toxicity μM (IC10)” value was determined as 1.277 µM. Further, the IC90 in data set [2] (setting [4]) was 0.0014 µM.
Consider `CCC1=C(C)c2cc3[nH]c(cc4nc(c(C)c5cc(C)c(cc1n2)[nH]5)[C@@H](CCC(=O)N(C)CCOC)[C@@H]4C)c(C)c3COC(=O)NCCC[P+](c1ccccc1)(c1ccccc1)c1ccccc1` [Compound 50, phyllochlorin N-methyl-N-(2-methoxy)ethyl propylamide 13-(N-(3-triphenylphosphoniumpropyl)bromide)carbamate], for which the IC90 in data set [2] (setting [4]) was 0.0016 µM. Further, the “Dark toxicity μM (IC10)” value in data set [3] is 0.470 µM.
The matching figures for `CCC1=C(C)c2cc3[nH]c(cc4nc(c(C)c5cc(C)c(cc1n2)[nH]5)[C@@H](CCC(=O)NCCOC)[C@@H]4C)c(C)c3COC(=O)NCCC[P+](c1ccccc1)(c1ccccc1)c1ccccc1` [Compound 52, phyllochlorin N-(2-methoxy)ethyl propylamide 13-(N-(3-triphenylphosphoniumpropyl)bromide)carbamate]: 0.0052 µM and 1.060 µM.
For `CCOC(=O)CC[C@@H]1c2nc(cc3[nH]c(cc4nc(cc5[nH]c(cc5C)c2C)C(CC)=C4C)c(COC(=O)NCCC[P+](c2ccccc2)(c2ccccc2)c2ccccc2)c3C)[C@H]1C` [Compound 53, phyllochlorin ethyl ester 13-(N-(3-triphenylphosphoniumpropyl)bromide)carbamate], the IC90 in data set [2] (setting [4]) amounted to 0.00077 µM. In addition, the “greater phototoxicity compared to Talaporfin sodium” value in data set [2] (SKOV3, IC90) is reported as 5 orders of magnitude. Also, the “Dark toxicity μM (IC10)” value in data set [3] was determined as 2.240 µM.
With `C=Cc1c(C)c2cc3nc(c(CC(=O)N[C@@H](CC(=O)O)C(=O)O)c4[nH]c(cc5nc(cc1[nH]2)C(C)=C5CC)c(C)c4C(=O)O)[C@@H](CCC(=O)O)[C@@H]3C` [Talaporfin sodium, reference compound], the “Dark toxicity μM (IC10)” value in data set [3] was 11.10 µM.
For the compound “phyllochlorin 13-(N-(3-(3-triphenylphosphoniumpropoxy)propyl)chloride)carbamate N-methyl-N-3,6,9-trioxadecyl propylamide [Compound 44]”, in data set [2] (660 nm LED panel 50 mW/cm^2 for 5 mins (15 J/cm^2), read-out: Phototoxicity μM (IC90), measured by LED), the IC90 was 0.0057 µM. Moreover, the “Dark toxicity μM (IC10)” value in data set [3] is 0.5603 µM.
As for “phyllochlorin methyl ester 3-triphenylphosphonium bromide propyl ether [Compound 21]”, the IC90 in data set [2] (660 nm laser 50 mW/cm^2 for 5 mins (15 J/cm^2), read-out: Phototoxicity μM (IC90)) was 0.012 µM. Also, in data set [3], the “Dark toxicity μM (IC10)” value was 3.801 µM.

Broadly, the IC90 is the concentration at which the effect reaches the 90% level.

The values are drawn from patent US20250177533A1, “PHOTODYNAMIC THERAPY AND DIAGNOSIS” (RMW CHO Group Limited, priority 2021, published 2025).
